Measurements taken from ChEMBL document CHEMBL3600366, “New 4-[(3-cyclohexyl-4-aryl-2,3-dihydro-1,3-thiazol-2-ylidene)amino]benzene-1-sulfonamides, synthesis and inhibitory activity toward carbonic anhydrase I, II, IX, XII” (Bioorg Med Chem Lett, 2015).

How the values were obtained:
[1] = target: Carbonic anhydrase 1 (Homo sapiens, UniProt P00915); test: Inhibition of human carbonic anhydrase-1
[2] = target: Carbonic anhydrase 9 (Homo sapiens, UniProt Q16790); test: Inhibition of human carbonic anhydrase-9

Carbonic anhydrase 1, sequence (P00915 whole entry): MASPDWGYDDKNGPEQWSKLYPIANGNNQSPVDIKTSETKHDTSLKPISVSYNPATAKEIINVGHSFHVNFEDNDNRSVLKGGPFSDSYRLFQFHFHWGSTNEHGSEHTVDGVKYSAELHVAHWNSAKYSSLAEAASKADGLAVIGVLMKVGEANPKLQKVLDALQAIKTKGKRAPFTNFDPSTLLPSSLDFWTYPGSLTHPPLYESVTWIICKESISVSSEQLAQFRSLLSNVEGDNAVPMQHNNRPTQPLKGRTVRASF

Compound | Ki [1] [nM] | Ki [2] [nM]
NS(=O)(=O)c1ccc(/N=c2\scc(-c3ccc(Br)cc3)n2C2CCCCC2)cc1 | > 10000 | –
NS(=O)(=O)c1ccc(/N=c2\scc(-c3ccc(Cl)cc3)n2C2CCCCC2)cc1 | – | 353
NS(=O)(=O)c1ccc(/N=c2\scc(-c3ccc(F)cc3)n2C2CCCCC2)cc1 | – | 274
NS(=O)(=O)c1ccc(/N=c2\scc(-c3cccc([N+](=O)[O-])c3)n2C2CCCCC2)cc1 | – | 193
NS(=O)(=O)c1ccc(/N=c2\scc(-c3ccc(Cl)cc3Cl)n2C2CCCCC2)cc1 | – | 342
N#Cc1ccc(-c2cs/c(=N\c3ccc(S(N)(=O)=O)cc3)n2C2CCCCC2)cc1 | – | 29.5
NS(=O)(=O)c1ccc(/N=c2\scc(-c3ccc(F)cc3F)n2C2CCCCC2)cc1 | – | 85.5
NS(=O)(=O)c1ccc(/N=c2\scc(-c3ccc([N+](=O)[O-])cc3)n2C2CCCCC2)cc1 | – | 29.4
NS(=O)(=O)c1ccc(/N=c2\scc(-c3ccc(-c4ccccc4)cc3)n2C2CCCCC2)cc1 | – | 32.5
Cc1ccc(-c2cs/c(=N\c3ccc(S(N)(=O)=O)cc3)n2C2CCCCC2)cc1 | – | 22.7
COc1ccc(-c2cs/c(=N\c3ccc(S(N)(=O)=O)cc3)n2C2CCCCC2)cc1 | – | 16.5
NS(=O)(=O)c1ccc(/N=c2\scc(-c3cccs3)n2C2CCCCC2)cc1 | – | 150
NS(=O)(=O)c1ccc(/N=c2\scc(-c3ccccc3)n2C2CCCCC2)cc1 | – | 354
